Results taken from article PMC4965148 (PLoS ONE, 2016).
Where “and” joins values, the source holds several entries; their conditions need not be identical. Identical values can stand only once. Like-named read-outs stand apart in the source and are kept apart here.

Tests used:
rat α1β1δε nAChR = biological target: T1, rat α1β1δε nAChR (Rattus norvegicus, UniProt P09660+P25108+P25109+P25110); experiment: Ca2+ flux (FLIPR) agonist/antagonist assay; format: cell-based; details: FLIPR agonist mode; read-out: agonist EC50 at α1β1δε nAChR
T1 construct: expressed in transfected cells; host or cells: HEK293 (made by Bristol-Myers Squibb)
T1 sequence (P25108 21-457): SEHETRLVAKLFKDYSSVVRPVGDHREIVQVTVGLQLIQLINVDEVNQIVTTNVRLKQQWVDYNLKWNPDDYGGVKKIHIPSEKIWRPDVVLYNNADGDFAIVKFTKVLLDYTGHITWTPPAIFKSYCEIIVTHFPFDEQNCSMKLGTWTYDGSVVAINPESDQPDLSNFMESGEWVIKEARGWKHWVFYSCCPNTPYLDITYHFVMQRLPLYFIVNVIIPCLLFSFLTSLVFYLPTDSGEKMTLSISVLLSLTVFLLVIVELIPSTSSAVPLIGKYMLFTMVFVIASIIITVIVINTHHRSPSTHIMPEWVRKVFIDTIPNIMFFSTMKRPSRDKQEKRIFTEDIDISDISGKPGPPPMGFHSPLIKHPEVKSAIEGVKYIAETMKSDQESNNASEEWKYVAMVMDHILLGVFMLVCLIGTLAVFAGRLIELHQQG
T1 sequence (P25109 24-501): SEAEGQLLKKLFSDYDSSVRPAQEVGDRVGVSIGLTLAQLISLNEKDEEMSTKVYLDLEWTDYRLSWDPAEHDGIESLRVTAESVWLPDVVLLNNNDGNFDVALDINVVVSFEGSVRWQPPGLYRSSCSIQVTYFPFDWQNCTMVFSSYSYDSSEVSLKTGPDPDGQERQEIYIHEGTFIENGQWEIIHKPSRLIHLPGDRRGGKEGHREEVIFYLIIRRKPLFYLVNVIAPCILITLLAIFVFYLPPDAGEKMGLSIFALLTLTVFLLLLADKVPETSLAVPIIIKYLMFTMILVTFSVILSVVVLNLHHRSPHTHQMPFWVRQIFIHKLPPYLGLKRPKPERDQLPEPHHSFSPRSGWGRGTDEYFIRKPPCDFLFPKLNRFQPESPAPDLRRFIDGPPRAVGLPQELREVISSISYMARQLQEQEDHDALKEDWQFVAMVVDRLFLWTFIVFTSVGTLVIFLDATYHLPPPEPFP
T1 sequence (P25110 22-517): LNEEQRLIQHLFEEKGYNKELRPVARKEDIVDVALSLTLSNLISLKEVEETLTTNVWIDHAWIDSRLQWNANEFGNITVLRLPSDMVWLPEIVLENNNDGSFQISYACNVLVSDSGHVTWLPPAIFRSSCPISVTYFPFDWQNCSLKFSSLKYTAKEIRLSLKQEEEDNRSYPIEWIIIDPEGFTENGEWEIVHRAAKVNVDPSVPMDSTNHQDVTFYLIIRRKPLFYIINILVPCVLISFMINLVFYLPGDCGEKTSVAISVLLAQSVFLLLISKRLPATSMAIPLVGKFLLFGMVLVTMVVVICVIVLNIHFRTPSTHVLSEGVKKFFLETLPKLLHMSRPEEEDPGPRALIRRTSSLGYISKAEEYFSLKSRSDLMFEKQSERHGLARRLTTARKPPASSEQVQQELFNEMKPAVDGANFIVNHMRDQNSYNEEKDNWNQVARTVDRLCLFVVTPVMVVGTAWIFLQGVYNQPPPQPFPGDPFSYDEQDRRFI
T1 sequence (P09660 21-494): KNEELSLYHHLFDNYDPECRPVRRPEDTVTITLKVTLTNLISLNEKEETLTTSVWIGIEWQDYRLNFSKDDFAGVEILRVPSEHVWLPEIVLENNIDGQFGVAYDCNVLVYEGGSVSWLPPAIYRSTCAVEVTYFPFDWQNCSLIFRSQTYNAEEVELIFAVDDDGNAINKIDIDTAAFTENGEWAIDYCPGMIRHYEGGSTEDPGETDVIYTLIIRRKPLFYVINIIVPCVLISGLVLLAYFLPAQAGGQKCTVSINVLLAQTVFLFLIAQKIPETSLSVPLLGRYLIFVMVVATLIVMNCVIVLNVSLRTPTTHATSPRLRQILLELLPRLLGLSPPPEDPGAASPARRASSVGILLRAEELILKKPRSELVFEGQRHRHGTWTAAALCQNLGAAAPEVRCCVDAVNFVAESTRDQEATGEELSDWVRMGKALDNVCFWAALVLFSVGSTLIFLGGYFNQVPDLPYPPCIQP

rat α3β4 nAChR = biological target: T2, rat α3β4 nAChR (Rattus norvegicus, UniProt P04757+P12392); experiment: Ca2+ flux (FLIPR) agonist/antagonist assay; format: cell-based; details: FLIPR agonist mode; read-out: agonist EC50 at α3β4 nAChR
T2 construct: expressed in transfected cells; host or cells: HEK293 (made by Bristol-Myers Squibb)
T2 sequence (P04757 26-499): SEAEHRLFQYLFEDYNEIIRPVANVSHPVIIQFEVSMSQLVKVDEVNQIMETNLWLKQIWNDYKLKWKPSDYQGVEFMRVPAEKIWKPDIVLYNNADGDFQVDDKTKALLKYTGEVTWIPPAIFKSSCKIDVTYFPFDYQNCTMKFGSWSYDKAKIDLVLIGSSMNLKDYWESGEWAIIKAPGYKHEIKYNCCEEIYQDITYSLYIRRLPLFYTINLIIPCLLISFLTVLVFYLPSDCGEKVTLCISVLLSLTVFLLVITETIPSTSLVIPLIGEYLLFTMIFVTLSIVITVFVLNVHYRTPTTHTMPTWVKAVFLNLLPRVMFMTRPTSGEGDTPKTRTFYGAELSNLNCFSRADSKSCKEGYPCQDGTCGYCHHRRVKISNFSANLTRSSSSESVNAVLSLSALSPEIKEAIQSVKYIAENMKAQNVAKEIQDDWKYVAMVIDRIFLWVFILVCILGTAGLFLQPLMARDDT
T2 sequence (P12392 21-495): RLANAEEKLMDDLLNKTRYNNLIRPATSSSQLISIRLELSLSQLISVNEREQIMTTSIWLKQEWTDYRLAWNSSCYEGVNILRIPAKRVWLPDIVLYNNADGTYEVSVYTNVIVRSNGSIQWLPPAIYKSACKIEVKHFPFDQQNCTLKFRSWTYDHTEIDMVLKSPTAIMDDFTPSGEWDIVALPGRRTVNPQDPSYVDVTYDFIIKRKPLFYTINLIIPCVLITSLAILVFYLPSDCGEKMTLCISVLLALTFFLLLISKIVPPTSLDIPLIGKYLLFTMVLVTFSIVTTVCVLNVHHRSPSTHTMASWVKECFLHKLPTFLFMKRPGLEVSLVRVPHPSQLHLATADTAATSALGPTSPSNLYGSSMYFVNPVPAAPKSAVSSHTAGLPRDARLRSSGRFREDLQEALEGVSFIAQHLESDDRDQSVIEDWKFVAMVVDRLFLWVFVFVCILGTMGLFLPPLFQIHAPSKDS

rat α4β2 nAChR = biological target: T3, rat α4β2 nAChR (Rattus norvegicus, UniProt P09483+P12390); experiment: Ca2+ flux (FLIPR) agonist/antagonist assay; format: cell-based; details: FLIPR agonist mode; read-out: agonist EC50 at α4β2 nAChR
T3 construct: expressed in transfected cells; host or cells: HEK293 (made by Bristol-Myers Squibb)
T3 sequence (P09483 31-630): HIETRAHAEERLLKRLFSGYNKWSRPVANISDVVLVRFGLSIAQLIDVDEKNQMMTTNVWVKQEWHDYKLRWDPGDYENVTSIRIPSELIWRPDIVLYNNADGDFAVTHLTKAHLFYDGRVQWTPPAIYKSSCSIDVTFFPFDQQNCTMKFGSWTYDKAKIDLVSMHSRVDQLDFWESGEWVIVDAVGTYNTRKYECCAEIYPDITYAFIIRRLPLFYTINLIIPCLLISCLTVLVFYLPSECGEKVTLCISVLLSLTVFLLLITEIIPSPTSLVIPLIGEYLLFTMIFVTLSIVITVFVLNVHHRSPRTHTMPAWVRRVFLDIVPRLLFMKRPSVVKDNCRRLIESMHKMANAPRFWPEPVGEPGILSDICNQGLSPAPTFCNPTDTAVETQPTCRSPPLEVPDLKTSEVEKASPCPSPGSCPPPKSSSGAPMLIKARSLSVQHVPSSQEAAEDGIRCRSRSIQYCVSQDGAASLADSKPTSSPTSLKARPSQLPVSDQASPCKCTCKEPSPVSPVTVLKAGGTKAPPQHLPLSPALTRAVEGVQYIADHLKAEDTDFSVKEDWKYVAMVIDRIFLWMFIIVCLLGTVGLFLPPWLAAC
T3 sequence (P12390 25-500): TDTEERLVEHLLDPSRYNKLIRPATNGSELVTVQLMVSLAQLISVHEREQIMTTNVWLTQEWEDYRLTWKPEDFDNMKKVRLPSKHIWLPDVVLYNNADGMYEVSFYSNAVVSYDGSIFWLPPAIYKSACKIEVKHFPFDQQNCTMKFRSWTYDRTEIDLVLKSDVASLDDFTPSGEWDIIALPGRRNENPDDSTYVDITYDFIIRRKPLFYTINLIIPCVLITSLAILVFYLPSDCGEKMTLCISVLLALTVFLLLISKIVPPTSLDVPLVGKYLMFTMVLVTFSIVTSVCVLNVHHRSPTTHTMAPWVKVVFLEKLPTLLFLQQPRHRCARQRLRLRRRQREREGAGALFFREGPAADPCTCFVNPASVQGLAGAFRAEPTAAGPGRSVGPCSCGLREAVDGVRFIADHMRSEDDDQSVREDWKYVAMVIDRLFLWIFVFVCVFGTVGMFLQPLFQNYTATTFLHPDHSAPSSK

HEK293/Human 5-HT3A = biological target: T4, HEK293/Human 5-HT3A (Homo sapiens, UniProt P46098); experiment: Ca2+ flux (FLIPR) 5-HT3A antagonist assay; format: cell-based
T4 construct: expressed in transfected cells; host or cells: HEK293 (made by Bristol-Myers Squibb)
T4 sequence (P46098 24-478): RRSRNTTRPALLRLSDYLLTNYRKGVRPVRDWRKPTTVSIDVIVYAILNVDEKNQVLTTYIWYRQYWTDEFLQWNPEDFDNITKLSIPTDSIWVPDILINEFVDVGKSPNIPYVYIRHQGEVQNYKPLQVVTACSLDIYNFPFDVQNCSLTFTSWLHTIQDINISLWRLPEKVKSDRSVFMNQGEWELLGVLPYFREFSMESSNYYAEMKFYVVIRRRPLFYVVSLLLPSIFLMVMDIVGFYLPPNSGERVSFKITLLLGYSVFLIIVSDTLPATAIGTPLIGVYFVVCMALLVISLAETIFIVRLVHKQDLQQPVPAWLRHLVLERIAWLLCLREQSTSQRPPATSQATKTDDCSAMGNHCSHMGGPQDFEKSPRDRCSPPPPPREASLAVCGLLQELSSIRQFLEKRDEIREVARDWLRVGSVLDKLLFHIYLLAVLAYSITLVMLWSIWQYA
Method: Functional activity was examined using Ca^2+-sensitive, dye-based, microfluorometric assays read on the FLIPR Tetra plate reader platform (Molecular Devices, CA, USA). Cells were plated in 384-well black, clear-bottomed Greiner poly-D-lysine coated plates at a density of ~25 K cells/well and incubated at 29°C for 48 h. Prior to assay, media contents were removed and cells incubated in assay buffer containing 5μM final Fluo-4 dye for 90 min. For nAChR assays, the dye-loading buffer was HBSS (#14175 Life Technologies) supplemented with 20 mM HEPES, 0.5 mM CaCl2, 1 mM MgCl2 and 10 μM atropine (final concentration). Test compounds were solubilized in DMSO and serially diluted in NUNC 384-well plates prior to addition of assay buffer (5.3 mM KCl + 140 mM NaCl + 20 mM Hepes + 25 mM CaCl2 + 1 mM MgCl2 + 10 μM atropine final concentration). Compounds diluted in assay buffer were added to the assay plate by the FLIPR and read for approximately 2 min. […] For 5-HT3A antagonist studies, the dye loading and compound diluent buffer was HBSS (#14025 Life Technologies) supplemented with 20 mM HEPES (final concentration) and the concentration of 5-HT used in the assay was 2 μM. Offline transformation of concentration response data was done using a 4 parameter logistic fit using a Bristol-Myers Squibb proprietary informatics software suite.

[1] = biological target: T5, HEK293/human α7 nAChR cells (Homo sapiens, UniProt P36544); experiment: Whole cell voltage clamp electrophysiology; format: cell-based; details: for Net Charge (Current Area) normalized to 300 µM ACh / Peak Current normalized to 3 mM ACh: individual cells
T5 construct: expressed in transfected cells
T5 sequence (P36544 23-502): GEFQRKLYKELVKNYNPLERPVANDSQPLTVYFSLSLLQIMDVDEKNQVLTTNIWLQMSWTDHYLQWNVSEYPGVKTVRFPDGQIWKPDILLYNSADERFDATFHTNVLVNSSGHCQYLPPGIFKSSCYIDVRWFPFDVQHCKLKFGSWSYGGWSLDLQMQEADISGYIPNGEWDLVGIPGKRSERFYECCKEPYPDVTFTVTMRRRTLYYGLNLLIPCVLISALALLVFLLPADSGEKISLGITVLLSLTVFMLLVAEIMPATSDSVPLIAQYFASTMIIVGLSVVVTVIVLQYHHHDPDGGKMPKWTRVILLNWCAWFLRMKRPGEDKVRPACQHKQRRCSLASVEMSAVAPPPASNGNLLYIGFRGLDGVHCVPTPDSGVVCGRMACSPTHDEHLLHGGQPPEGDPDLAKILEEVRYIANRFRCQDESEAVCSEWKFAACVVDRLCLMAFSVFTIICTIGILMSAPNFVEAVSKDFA
Method: Whole-cell voltage clamp studies were conducted on HEK293/rat α7 or HEK293/human α7 nAChR cells. […] Atropine (1 μM) was included in the bathing solution. […] Cells were voltage clamped at a holding potential of -90 mV. Using the Dynaflow microfluidic perfusion system (Cellectricon; flow 26 μl/min) responses to a 300 ms application of ACh or α7 nAChR agonists were measured. Currents were filtered at 2 kHz and sampled at 10 kHz using an EPC-9 amplifier and HEKA Pulse/Patchmaster software. […] The peak current amplitude and net charge crossing the membrane (i.e. the area under the current response curve) induced by agonist application were measured using Clampfit (pClamp Suite) and normalized to the maximal response induced by ACh (3 mM ACh for peak current amplitude and 300 μM ACh for net charge).

α7 nAChR = details: read-out: reported Ki; cited from earlier work
human 5-HT3A receptors = biological target: T6, human 5-HT3A receptors (Homo sapiens, UniProt P46098); experiment: biochemical
T6 sequence (P46098 24-478): T4 sequence (P46098 24-478)

HEK293/Human α7 nAChR = HEK293/Human α7 nAChR (Homo sapiens, UniProt P36544); experiment: [3H]-A-585539 filtration binding; parameters: expressed in transfected cells
Sequence of HEK293/Human α7 nAChR (P36544 23-502): as above

## O=C(N[C@H]1CN2CCC1CC2)c1cc2cccc(Cl)c2s1 [EVP-6124, (R)-7-chloro-N-(quinuclidin-3-yl)benzo[b]thiophene-2-carboxamide, reference compound]
Rat α1β1δε nAChR
  EC50: > 100000 nM
Rat α3β4 nAChR
  EC50: > 100000 nM
Rat α4β2 nAChR
  EC50: > 100000 nM
HEK293/Human 5-HT3A; Ca2+ flux (FLIPR), antagonism of 2 μM 5-HT, read-out: HEK293/Human 5-HT3A Mean ± SD IC50
  IC50: 4 ± 2.1 nM
HEK293/Human 5-HT3A; FLIPR, individual determinations, read-out: Human 5-HT3A IC50 values (individual)
  IC50: 6 nM and 3 nM and 1 nM and 5 nM
[1]; 0.03 µM
  Net Charge (Current Area) normalized to 300 µM ACh: 0.1633 and 0.2064 and 0.1153 and 0.1342
  Peak Current normalized to 3 mM ACh: 0.0231 and 0.03032 and 0.02328 and 0.01316
[1]; EVP-6124 series 0.1 µM
  Net Charge (Current Area) normalized to 300 µM ACh: 0.8405 and 1.081 and 0.8479 and 0.8723
  Peak Current normalized to 3 mM ACh: 0.0485 and 0.06704 and 0.0971 and 0.0413
[1]; EVP-6124 series 0.3 µM
  Net Charge (Current Area) normalized to 300 µM ACh: 1.201 and 1.302 and 1.445 and 1.418
  Peak Current normalized to 3 mM ACh: 0.1072 and 0.154 and 0.07666 and 0.07157
[1]; EVP-6124 series 1 µM
  Net Charge (Current Area) normalized to 300 µM ACh: 1.414 and 1.499 and 1.608 and 1.442
  Peak Current normalized to 3 mM ACh: 0.127 and 0.1447 and 0.2547 and 0.1421
[1]; EVP-6124 series 3 µM
  Net Charge (Current Area) normalized to 300 µM ACh: 1.22 and 1.197 and 1.304 and 1.07
  Peak Current normalized to 3 mM ACh: 0.1877 and 0.2441 and 0.3832 and 0.2558
[1]; EVP-6124 series 10 µM
  Net Charge (Current Area) normalized to 300 µM ACh: 0.349 and 0.4055 and 0.3939 and 0.327
  Peak Current normalized to 3 mM ACh: 0.2438 and 0.2654 and 0.4627 and 0.3034
[1]; Human, normalized to 300 μM ACh
  Mean ± SEM Net Charge Ymax: 1.36 ± 0.09
[1]; Human, normalized to 3 mM ACh
  Mean ± SEM Peak Current Ymaxobs @ 10 μM: 0.32 ± 0.05
[1]; Human, read-out: Mean ± SEM Net Charge EC50
  EC50: 70 ± 20 nM
α7 nAChR
  Ki: 10 nM
Human 5-HT3A receptors
  Ki: 2.5 nM
HEK293/Human α7 nAChR; displacement of [3H]-A-585539, read-out: HEK293/Human α7 nAChR Mean ± SD Ki
  Ki: 3 ± 1.13 nM
HEK293/Human α7 nAChR; individual determinations, read-out: HEK293/human α7 nAChR Ki (individual)
  Ki: 2.2 nM and 3.8 nM
